According to PubChem BioAssay AID1259407 (Chemical Carcinogenesis Research Information System (CCRIS), 2018):
Active and inactive are the calls of the source. No rule for the calls is given here.

System: CCRIS mutagenicity, Ames/micronucleus/aberration tests
Experiment: CCRIS mutagenicity studies
[1] = Test System: AMES SALMONELLA TYPHIMURIUM, Strain/Indicator: TA98, Metabolic Activation: NONE, Method: PREINCUBATION
[2] = Test System: AMES SALMONELLA TYPHIMURIUM, Strain/Indicator: TA100, Metabolic Activation: NONE, Method: PREINCUBATION
[3] = Test System: AMES SALMONELLA TYPHIMURIUM, Strain/Indicator: TA1535, Metabolic Activation: NONE, Method: PREINCUBATION

Question: How did the mutagenic call (Test System: AMES SALMONELLA TYPHIMURIUM, Strain/Indicator: TA98(1,8-DNP6), Metabolic Activation: NONE, Method: STANDARD PLATE) turn out when `Cn1c(N=[N+]=[N-])nc2ccc3ccccc3c21` was run?
Answer: Its mutagenic call is “active; positive”.

Question: And the mutagenic call (Test System: AMES SALMONELLA TYPHIMURIUM, Strain/Indicator: TA98, Metabolic Activation: NONE, Method: STANDARD PLATE)?
Answer: The mutagenic call was “active; positive”.

Question: For `CN(CCC#N)c1ccc(N=Nc2ccccc2)cc1`, which mutagenic call (Test System: AMES SALMONELLA TYPHIMURIUM, Strain/Indicator: TA98, Metabolic Activation: RAT, LIVER, S-9, AROCLOR, Method: PREINCUBATION) is on record?
Answer: The mutagenic call was “active; positive”.

Question: How did the mutagenic call (Test System: AMES SALMONELLA TYPHIMURIUM, Strain/Indicator: TA98, Metabolic Activation: HAMSTER, LIVER, S-9, AROCLOR 1254, Method: PREINCUBATION) turn out when `Oc1ccc(Cl)c(Cl)c1` was run?
Answer: The mutagenic call was “inactive; negative”.

Question: What about the mutagenic call [1] of the same molecule?
Answer: Its mutagenic call is “inactive; negative”.

Question: And the mutagenic call (Test System: AMES SALMONELLA TYPHIMURIUM, Strain/Indicator: TA98, Metabolic Activation: RAT, LIVER, S-9, AROCLOR 1254, Method: PREINCUBATION)?
Answer: The mutagenic call was “inactive; negative”.

Question: And the mutagenic call (Test System: AMES SALMONELLA TYPHIMURIUM, Strain/Indicator: TA100, Metabolic Activation: HAMSTER, LIVER, S-9, AROCLOR 1254, Method: PREINCUBATION)?
Answer: The mutagenic call was “inactive; negative”.

Question: And the mutagenic call [2]?
Answer: The mutagenic call was “inactive; negative”.

Question: And the mutagenic call (Test System: AMES SALMONELLA TYPHIMURIUM, Strain/Indicator: TA100, Metabolic Activation: RAT, LIVER, S-9, AROCLOR 1254, Method: PREINCUBATION)?
Answer: Its mutagenic call is “inactive; negative”.

Question: What about the mutagenic call (Test System: AMES SALMONELLA TYPHIMURIUM, Strain/Indicator: TA1535, Metabolic Activation: HAMSTER, LIVER, S-9, AROCLOR 1254, Method: PREINCUBATION) of the same molecule?
Answer: Its mutagenic call is “inactive; negative”.

Question: And the mutagenic call [3]?
Answer: The mutagenic call was “inactive; negative”.

Question: And the mutagenic call (Test System: AMES SALMONELLA TYPHIMURIUM, Strain/Indicator: TA1535, Metabolic Activation: RAT, LIVER, S-9, AROCLOR 1254, Method: PREINCUBATION)?
Answer: Its mutagenic call is “inactive; negative”.

Question: And the mutagenic call (Test System: AMES SALMONELLA TYPHIMURIUM, Strain/Indicator: TA1537, Metabolic Activation: HAMSTER, LIVER, S-9, AROCLOR 1254, Method: PREINCUBATION)?
Answer: The mutagenic call was “inactive; negative”.

Question: And the mutagenic call (Test System: AMES SALMONELLA TYPHIMURIUM, Strain/Indicator: TA1537, Metabolic Activation: NONE, Method: PREINCUBATION)?
Answer: The mutagenic call was “inactive; negative”.

Question: And the mutagenic call (Test System: AMES SALMONELLA TYPHIMURIUM, Strain/Indicator: TA1537, Metabolic Activation: RAT, LIVER, S-9, AROCLOR 1254, Method: PREINCUBATION)?
Answer: Its mutagenic call is “inactive; negative”.

Question: Which results are given for `O=[N+]([O-])c1cccc2nc3c([N+](=O)[O-])cccc3nc12`?
Answer: mutagenic call (Test System: AMES SALMONELLA TYPHIMURIUM, Strain/Indicator: TA98(NR), Metabolic Activation: NONE, Method: PREINCUBATION): inactive; negative; mutagenic call [1]: inactive; negative

Question: Which results are given for `Cc1c2ccccc2c2ccc3cccc4ccc1c2c43`?
Answer: mutagenic call (Test System: AMES SALMONELLA TYPHIMURIUM, Strain/Indicator: TA100, Metabolic Activation: RAT, NADPH-FORTIFIED HOMOGENIZED HEPATOCYTES, AROCLOR 1254, Method: PREINCUBATION): active; positive; mutagenic call (Test System: CHINESE HAMSTER V-79, Strain/Indicator: V-79/8-AZAGUANINE, Metabolic Activation: HAMSTER, EMBRYO, CELL-MEDIATED, Method: STANDARD PLATE): active; positive

Question: `c1cc2c3oc3cc3ccc4c5oc5cc1c4c32` was tested. Which mutagenic call (Test System: AMES SALMONELLA TYPHIMURIUM, Strain/Indicator: TA100, Metabolic Activation: NONE, Method: STANDARD PLATE) did it give?
Answer: Its mutagenic call is “active; positive”.

Question: What does the source list for `c1ccc2n[nH]nc2c1`?
Answer: mutagenic call (Test System: AMES SALMONELLA TYPHIMURIUM, Strain/Indicator: TA97, Metabolic Activation: HAMSTER, LIVER, S-9, AROCLOR 1254 (10%), Method: PREINCUBATION): inactive; negative; mutagenic call (Test System: AMES SALMONELLA TYPHIMURIUM, Strain/Indicator: TA97, Metabolic Activation: NONE, Method: PREINCUBATION): inactive; negative; mutagenic call (Test System: AMES SALMONELLA TYPHIMURIUM, Strain/Indicator: TA97, Metabolic Activation: RAT, LIVER, S-9, AROCLOR 1254 (10%), Method: PREINCUBATION): inactive; negative; mutagenic call (Test System: AMES SALMONELLA TYPHIMURIUM, Strain/Indicator: TA98, Metabolic Activation: HAMSTER, LIVER, S-9, AROCLOR 1254 (10%), Method: PREINCUBATION): inactive; negative; mutagenic call [1]: inactive; negative; mutagenic call (Test System: AMES SALMONELLA TYPHIMURIUM, Strain/Indicator: TA98, Metabolic Activation: RAT, LIVER, S-9, AROCLOR 1254 (10%), Method: PREINCUBATION): inactive; negative; mutagenic call (Test System: AMES SALMONELLA TYPHIMURIUM, Strain/Indicator: TA100, Metabolic Activation: HAMSTER, LIVER, S-9, AROCLOR 1254 (10%), Method: PREINCUBATION): inactive; negative; mutagenic call [2]: inactive; negative; mutagenic call (Test System: AMES SALMONELLA TYPHIMURIUM, Strain/Indicator: TA100, Metabolic Activation: RAT, LIVER, S-9, AROCLOR 1254 (10%), Method: PREINCUBATION): inactive; negative; mutagenic call (Test System: AMES SALMONELLA TYPHIMURIUM, Strain/Indicator: TA1535, Metabolic Activation: HAMSTER, LIVER, S-9, AROCLOR 1254 (10%), Method: PREINCUBATION): active; positive; mutagenic call [3]: inactive; negative; mutagenic call (Test System: AMES SALMONELLA TYPHIMURIUM, Strain/Indicator: TA1535, Metabolic Activation: RAT, LIVER, S-9, AROCLOR 1254 (10%), Method: PREINCUBATION): active; positive; mutagenic call (Test System: E. COLI, Strain/Indicator: WP2 UVRA, Metabolic Activation: MOUSE, LIVER, S-9, AROCLOR 1254, Method: STANDARD PLATE): inactive; negative

Question: How did the mutagenic call (Test System: HUMAN H1A1V2 CELLS, Strain/Indicator: TK LOCUS, Metabolic Activation: NONE, Method: SUSPENSION/PLATE) turn out when `c1ccc2c(c1)cc1cccc3c4cccc5cccc(c54)c2c13` was run?
Answer: Its mutagenic call is “active; positive”.
